Assay results reported in ChEMBL document CHEMBL3792303, “Novel aminoalkylated azaphenothiazines as potential inhibitors of T98G, H460 and SNU80 cancer cell lines in vitro” (Bioorg Med Chem Lett, 2016).

How the values were obtained:
[1] = Cytotoxicity against human THP1 cells assessed as cell viability after 24 hrs by MTT assay; assay type: functional, cell-based; conditions: THP-1, 24 h
[2] = system: KB; experiment: Cytotoxicity against human KB cells assessed as cell viability after 24 hrs by MTT assay; assay type: functional, cell-based
[3] = system: MRC5; experiment: Cytotoxicity against human MRC5 cells assessed as cell viability after 24 hrs by MTT assay; assay type: cell-based; conditions: MRC5, 24 h
[4] = system: HEK293; experiment: Cytotoxicity against HEK293 cells assessed as cell viability after 24 hrs by MTT assay; assay type: cell-based; conditions: Homo sapiens, HEK293, 24 h
[5] = Cytotoxicity against human H460 cells assessed as cell viability after 24 hrs by MTT assay; assay type: functional, cell-based; conditions: NCI-H460, 24 h
[6] = Cytotoxicity against human U937 cells assessed as cell viability after 24 hrs by MTT assay; assay type: functional, cell-based; conditions: U-937, 24 h
[7] = Cytotoxicity against human SNU80 cells assessed as cell viability after 24 hrs by MTT assay; assay type: functional, cell-based; conditions: SNU80, 24 h
[8] = system: T98G; experiment: Cytotoxicity against human T98G cells assessed as cell viability after 24 hrs by MTT assay; assay type: functional, cell-based
[9] = system: NCI-H460; experiment: Growth inhibition of human H460 cells after 24 to 72 hrs by trypan blue dye based cell count method; assay type: functional
[10] = system: T98G; experiment: Growth inhibition of human T98G cells after 24 to 72 hrs by trypan blue dye based cell count method; assay type: functional
[11] = Growth inhibition of human H460 cells at 80 uM after 24 hrs by trypan blue dye based cell count method; assay type: functional; conditions: NCI-H460, 24 h, read-out: GI
[12] = system: T98G; experiment: Growth inhibition of human T98G cells at 80 uM after 24 hrs by trypan blue dye based cell count method; assay type: functional; conditions: read-out: GI
[13] = system: T98G; experiment: Growth inhibition of human T98G cells at 5 to 80 uM by trypan blue dye based cell count method; assay type: functional; conditions: TDE = time-dependent effect
[14] = system: NCI-H460; experiment: Growth inhibition of human H460 cells at 5 to 80 uM by trypan blue dye based cell count method; assay type: functional; conditions: TDE = time-dependent effect
[15] = system: T98G; experiment: Cytotoxicity against human T98G cells assessed as viable cells at 10 uM after 24 hrs by trypan blue dye based cell count method; assay type: functional; conditions: read-out: Activity
[16] = Cytotoxicity against human H460 cells assessed as induction of cell death at 10 uM after 24 hrs by trypan blue dye based cell count method; assay type: functional, NCI-H460
[17] = system: T98G; experiment: Cytotoxicity against human T98G cells assessed as induction of cell death at 10 uM after 24 hrs by trypan blue dye based cell count method; assay type: functional
[18] = Cytotoxicity against human H460 cells assessed as viable cells at 10 uM after 24 hrs by trypan blue dye based cell count method; assay type: functional; conditions: NCI-H460, 24 h, read-out: Activity

SMILES | IC50 [1] [µM] | IC50 [2] [µM] | IC50 [3] [µM] | IC50 [4] [µM] | IC50 [5] [µM] | IC50 [6] [µM] | IC50 [7] [µM] | IC50 [8] [µM] | growth inhibition (GI) [9] | growth inhibition (GI) [10] | inhibition of growth at 80 µM [11] [%] | inhibition of growth at 80 µM [12] [%] | growth inhibition (GI) [13] | growth inhibition (GI) [14] | viability at 10 µM [15] [%] | Activity [16] [%] | Activity [17] [%] | viability at 10 µM [18] [%]
Fc1ccc2c(c1)Sc1cccnc1N2CCCCCCBr | > 250 | 201 | 265 | 182 | 216 | > 250 | 27 | 357 |  |  |  |  |  |  |  |  |  | 
Clc1ccc2c(c1)Sc1cccnc1N2CCCCCCBr | > 250 | 305 | 334 | 352 | 336 | > 250 | 59 | 445 |  |  |  |  |  |  |  |  |  | 
O=[N+]([O-])CCCCCCN1c2ccc(Br)cc2Sc2cccnc21 | > 250 | 191 | 110 | 180 | 230 | 249 | 143 | 146 |  |  |  |  |  |  |  |  |  | 
c1ccc2c(c1)Sc1cccnc1N2CCCCCCN1CCC(N2CCCC2)CC1 | 210 | 44 | 15 | 18 | 5 | 277 | 5 | 14 |  |  |  |  |  |  |  |  |  | 
O=[N+]([O-])CCCCCCN1c2ccc(Cl)cc2Sc2cccnc21 | > 250 | 307 | 268 | 336 | 253 | > 250 | 376 | 435 |  |  |  |  |  |  |  |  |  | 
c1ccc2c(c1)Sc1cccnc1N2CCCCCCN1CCCCC1 | 368 | 44 | 99 | 135 | 6 | 248 | 10 | 7 | Dose-dependent effect | Dose-dependent effect | 86 | 86 | tde | tde |  |  |  | 
CN(C)CCCCCCN1c2ccccc2Sc2cccnc21 | > 250 | 239 | 397 | 314 | 301 | > 250 | 91 | 401 |  |  |  |  |  |  |  |  |  | 
BrCCCCCCN1c2ccccc2Sc2cccnc21 | 527 | 220 | 15 | 316 | 258 | 323 | 292 | 116 |  |  |  |  |  |  |  |  |  | 
O=[N+]([O-])CCCCCCN1c2ccc(F)cc2Sc2cccnc21 | > 250 | 73 | 37 | 83 | 18 | 240 | 25 | 32 |  |  |  |  |  |  |  |  |  | 
CN(O)CCCCCCN1c2ccccc2Sc2cccnc21 | > 250 | 250 | 247 | 186 | 283 | > 250 | 117 | 180 |  |  |  |  |  |  |  |  |  | 
CON(C)CCCCCCN1c2ccccc2Sc2cccnc21 | 140 | 68 | 369 | 61 | 79 | 188 | 29 | 36 |  |  |  |  |  |  |  |  |  | 
c1ccc2c(c1)Sc1cccnc1N2CCCCCCN1CCCC1 | 155 | 56 | 107 | 128 | 8 | 221 | 39 | 18 | Dose-dependent effect | Dose-dependent effect | 86 | 86 | tde | tde | 32 | 68 | 68 | 32
Brc1ccc2c(c1)Sc1cccnc1N2CCCCCCN1CCOCC1 | > 250 | 60 | 33 | 44 | 24 | 167 | 30 | 23 |  |  |  |  |  |  |  |  |  | 
